Source: patent US20090042910A1, “QUINOLINE DERIVATIVES FOR TREATING CANCER” (priority 2006, published 2009)

Key:
[1] = biological target: T1, KDR (VEGFR2) (Homo sapiens, UniProt P35968); assay: In vitro phospho-KDR ELISA assay in HUVECs (Test c); format: cell-based; settings: HUVECs stimulated with VEGF, read-out: IC50 versus phospho-tyrosine formation in KDR
T1 construct: phosphorylation of KDR expressed in human umbilical vein endothelial cells (HUVECs); host or cells: HUVECs (primary human umbilical vein endothelial cells)
Description: This assay uses a conventional ELISA method to determine the ability of test compounds to inhibit phosphorylation of tyrosine in KDR (VEGFR2).
Human umbilical vein endothelial cells (HUVECs; PromoCell) were routinely incubated at 37° C. with 7.5% CO2 in ‘growth medium’ comprising MCDB 131 (Gibco Catalogue No. 10372-019; 500 ml) containing L-glutamine (Sigma Catalogue No. G3126; 0.848 g), 1% Penicillin Streptomycin (Gibco Catalogue No. 15140-122) and Fetal Bovine Serum (PAA Laboratories Catalogue No. A15-043; 50 ml).
For the assay, the cells were detached from the culture flask using a trypsin/ethylenediaminetetraacetic acid (EDTA) mixture (Invitrogen Ltd.; Catalogue No. 15400-054) and resuspended in ‘test medium’ comprising MCDB 131 (500 ml) containing L-glutamine (0.848 g), 1% Penicillin Streptomycin and Fetal Bovine Serum (10 ml). Aliquots (1 ml) were seeded into each well of a 24 well tissue culture plate (Corning Life Sciences; Catalogue No. 3527) to give a density of approximately 3.5×10^4 cells per well. The cells were incubated overnight at 37° C. with 7.5% CO2 to allow adherence to the well surface. The following morning the assay medium was decanted and an aliquot (0.5 ml) of ‘serum free medium’ comprising MCDB 131 (500 ml) containing L-glutamine (0.848 g) and 1% Penicillin Streptomycin was added to each well. The plates were incubated at 37° C. for 2.5 hours. […]

[2] = biological target: T2, PDGFRβ (Homo sapiens, UniProt P09619); assay: In vitro phospho-Tyr751 PDGFRβ ELISA assay in MG63 osteosarcoma cells (Test b); format: cell-based; settings: MG63 cells stimulated with PDGFBB, read-out: IC50 versus phospho-Tyr751 formation in PDGFRβ
T2 construct: endogenous in cells; host or cells: MG63 osteosarcoma cells (ATCC)
Description: This assay uses a conventional ELISA method to determine the ability of test compounds to inhibit phosphorylation of tyrosine in PDGFRβ.
An MG63 osteosarcoma cell line [American Type Culture Collection (ATCC) CCL 1427] was routinely maintained at 37° C. with 7.5% CO2 in Dulbecco's modified Eagle's growth medium (DMEM; Sigma-Aldrich; Catalogue No. D6546) containing 10% foetal calf serum (FCS; Sigma-Aldrich; Catalogue No. F7524) and 2 mM L-glutamine (Invitrogen Ltd., Paisley, UK; Catalogue No. 25030-024).
For the assay, the cells were detached from the culture flask using a trypsin/ethylenediaminetetraacetic acid (EDTA) mixture (Invitrogen Ltd.; Catalogue No. 15400-054) and resuspended in a test medium comprising DMEM without phenol red (Sigma-Aldrich; Catalogue No. D5921) containing 1% charcoal-stripped foetal calf serum (FCS) (Sigma-Aldrich; Catalogue No. F7524, stripped by incubation with dextran-coated activated charcoal at 55° C. for 30 minutes with continuous stirring followed by removal of the charcoal by centrifugation and filter sterilisation) and 2 mM L-glutamine (Invitrogen Ltd., Catalogue No. 25030-024) to give 6×10^4 cells per ml. […]

T2 sequence (P09619 33-1106): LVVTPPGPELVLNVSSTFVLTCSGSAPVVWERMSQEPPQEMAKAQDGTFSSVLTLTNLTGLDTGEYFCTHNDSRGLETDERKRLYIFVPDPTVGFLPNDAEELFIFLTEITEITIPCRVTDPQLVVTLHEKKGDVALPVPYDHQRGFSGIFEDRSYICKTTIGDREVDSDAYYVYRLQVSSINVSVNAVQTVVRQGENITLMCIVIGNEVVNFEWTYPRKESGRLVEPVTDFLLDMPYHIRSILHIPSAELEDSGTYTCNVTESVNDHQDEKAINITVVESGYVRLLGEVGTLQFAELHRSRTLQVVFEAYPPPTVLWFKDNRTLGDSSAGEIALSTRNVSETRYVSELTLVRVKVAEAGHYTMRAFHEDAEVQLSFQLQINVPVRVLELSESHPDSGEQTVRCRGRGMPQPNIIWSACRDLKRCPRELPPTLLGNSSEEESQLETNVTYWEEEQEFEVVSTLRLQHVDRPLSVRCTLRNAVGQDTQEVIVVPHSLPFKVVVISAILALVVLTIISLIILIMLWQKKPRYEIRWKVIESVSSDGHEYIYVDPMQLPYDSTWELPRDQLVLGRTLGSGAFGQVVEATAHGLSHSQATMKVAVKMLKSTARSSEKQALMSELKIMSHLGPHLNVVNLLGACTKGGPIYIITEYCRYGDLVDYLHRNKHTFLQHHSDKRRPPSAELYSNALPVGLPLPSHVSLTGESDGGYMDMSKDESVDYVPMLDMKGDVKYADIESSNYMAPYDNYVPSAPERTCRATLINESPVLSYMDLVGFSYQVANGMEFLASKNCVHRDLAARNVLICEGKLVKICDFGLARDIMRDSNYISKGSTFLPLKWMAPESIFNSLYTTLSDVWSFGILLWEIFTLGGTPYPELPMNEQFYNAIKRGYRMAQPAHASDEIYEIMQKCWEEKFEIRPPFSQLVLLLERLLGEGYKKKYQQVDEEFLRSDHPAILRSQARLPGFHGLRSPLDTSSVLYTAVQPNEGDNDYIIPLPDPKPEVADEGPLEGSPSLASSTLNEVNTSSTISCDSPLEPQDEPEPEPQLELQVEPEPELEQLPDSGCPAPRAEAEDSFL
T1 sequence (P35968 20-1356): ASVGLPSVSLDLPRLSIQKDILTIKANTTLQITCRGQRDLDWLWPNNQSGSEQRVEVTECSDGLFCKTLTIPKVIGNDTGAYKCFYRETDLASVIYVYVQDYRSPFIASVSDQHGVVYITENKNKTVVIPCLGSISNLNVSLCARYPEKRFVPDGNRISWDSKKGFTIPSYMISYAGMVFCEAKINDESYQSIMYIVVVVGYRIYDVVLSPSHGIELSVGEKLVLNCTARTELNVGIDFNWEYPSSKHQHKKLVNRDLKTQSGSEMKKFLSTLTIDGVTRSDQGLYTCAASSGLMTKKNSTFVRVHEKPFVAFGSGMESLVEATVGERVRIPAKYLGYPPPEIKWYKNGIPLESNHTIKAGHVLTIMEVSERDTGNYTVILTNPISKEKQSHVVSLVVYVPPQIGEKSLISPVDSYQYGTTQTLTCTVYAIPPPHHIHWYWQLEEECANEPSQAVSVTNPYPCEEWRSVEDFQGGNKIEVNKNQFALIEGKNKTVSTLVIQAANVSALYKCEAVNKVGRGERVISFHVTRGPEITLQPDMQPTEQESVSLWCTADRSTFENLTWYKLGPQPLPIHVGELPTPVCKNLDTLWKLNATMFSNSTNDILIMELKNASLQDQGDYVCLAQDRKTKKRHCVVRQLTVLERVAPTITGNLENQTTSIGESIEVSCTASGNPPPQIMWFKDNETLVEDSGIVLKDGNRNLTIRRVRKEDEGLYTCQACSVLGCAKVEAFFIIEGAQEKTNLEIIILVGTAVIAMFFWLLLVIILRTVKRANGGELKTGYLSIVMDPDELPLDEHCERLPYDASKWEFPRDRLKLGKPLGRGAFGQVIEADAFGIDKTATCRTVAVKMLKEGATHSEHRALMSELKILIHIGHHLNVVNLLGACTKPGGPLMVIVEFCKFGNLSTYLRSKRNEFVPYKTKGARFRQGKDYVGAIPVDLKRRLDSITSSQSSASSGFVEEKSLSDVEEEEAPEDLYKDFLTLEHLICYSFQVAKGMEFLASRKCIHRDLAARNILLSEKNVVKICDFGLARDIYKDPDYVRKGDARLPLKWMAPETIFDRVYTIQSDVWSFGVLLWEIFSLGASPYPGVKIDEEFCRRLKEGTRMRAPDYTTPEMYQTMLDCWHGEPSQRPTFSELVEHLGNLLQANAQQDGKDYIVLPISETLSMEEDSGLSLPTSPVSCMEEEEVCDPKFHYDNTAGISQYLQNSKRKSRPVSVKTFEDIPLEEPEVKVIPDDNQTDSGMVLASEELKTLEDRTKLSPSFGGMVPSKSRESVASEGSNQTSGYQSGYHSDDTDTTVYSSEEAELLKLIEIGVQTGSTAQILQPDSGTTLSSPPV

Compound | IC50 [1] | IC50 [2]
CCn1cc(NC(=O)Cc2ncc(Oc3ccnc4cc(OC)c(OC)cc34)cn2)cn1 [Example 1, N-(1-ethylpyrazol-4-yl)-2-[5-(6,7-dimethoxyquinolin-4-yloxy)pyrimidin-2-yl]acetamide] | ~1000 nM | ~7 nM
CCc1cc(NC(=O)Cc2ncc(Oc3ccnc4cc(OC)c(OC)cc34)cn2)n[nH]1 [N-(5-ethyl-1H-pyrazol-3-yl)-2-[5-(6,7-dimethoxyquinolin-4-yloxy)pyrimidin-2-yl]acetamide] | ~700 nM | ~6 nM
